Activity calls are given as the source filed them. How the calls were made is not given here.

This data set concerns CCRIS mutagenicity, Ames/micronucleus/aberration tests. The data set can be described thus: CCRIS mutagenicity studies.
[1] abbreviates: Test System: AMES SALMONELLA TYPHIMURIUM, Strain/Indicator: TA98, Metabolic Activation: NONE, Method: PREINCUBATION
Setting [2] is: Test System: AMES SALMONELLA TYPHIMURIUM, Strain/Indicator: TA100, Metabolic Activation: NONE, Method: PREINCUBATION
The mark [3] stands for this setting: Test System: AMES SALMONELLA TYPHIMURIUM, Strain/Indicator: TA97, Metabolic Activation: NONE, Method: PREINCUBATION
The mark [4] stands for this setting: Test System: AMES SALMONELLA TYPHIMURIUM, Strain/Indicator: TA1535, Metabolic Activation: NONE, Method: PREINCUBATION

For the molecule `CN(N=O)C(=O)c1c(N(C)C(=O)OC(C)(C)C)ncn1C`, the mutagenic call was “inactive; negative” (Test System: AMES SALMONELLA TYPHIMURIUM, Strain/Indicator: TA98, Metabolic Activation: NONE, Method: STANDARD PLATE); “inactive; negative” (Test System: AMES SALMONELLA TYPHIMURIUM, Strain/Indicator: TA98, Metabolic Activation: S-9, Method: STANDARD PLATE); “active; positive” (Test System: AMES SALMONELLA TYPHIMURIUM, Strain/Indicator: TA100, Metabolic Activation: NONE, Method: STANDARD PLATE); “active; positive” (Test System: AMES SALMONELLA TYPHIMURIUM, Strain/Indicator: TA100, Metabolic Activation: S-9, Method: STANDARD PLATE); “inactive; negative” (Test System: AMES SALMONELLA TYPHIMURIUM, Strain/Indicator: TA102, Metabolic Activation: NONE, Method: STANDARD PLATE); “active; positive” (Test System: AMES SALMONELLA TYPHIMURIUM, Strain/Indicator: TA102, Metabolic Activation: S-9, Method: STANDARD PLATE). The mutagenic call (Test System: AMES SALMONELLA TYPHIMURIUM, Strain/Indicator: TA1535, Metabolic Activation: NONE, Method: STANDARD PLATE) was “active; positive”; the mutagenic call (Test System: AMES SALMONELLA TYPHIMURIUM, Strain/Indicator: TA1535, Metabolic Activation: S-9, Method: STANDARD PLATE) is “active; positive”; the mutagenic call (Test System: AMES SALMONELLA TYPHIMURIUM, Strain/Indicator: TA1537, Metabolic Activation: NONE, Method: STANDARD PLATE) is “inactive; negative”; the mutagenic call (Test System: AMES SALMONELLA TYPHIMURIUM, Strain/Indicator: TA1537, Metabolic Activation: S-9, Method: STANDARD PLATE) was “inactive; negative”.
As for `Cc1cccc([N+](=O)[O-])c1C`, the mutagenic call by setting is: under setting [1], “inactive; negative”; (Test System: AMES SALMONELLA TYPHIMURIUM, Strain/Indicator: TA98, Metabolic Activation: RAT, LIVER, S-9, KANECHLOR 500, Method: PREINCUBATION) “inactive; negative”; under setting [2], “inactive; negative”; (Test System: AMES SALMONELLA TYPHIMURIUM, Strain/Indicator: TA100, Metabolic Activation: RAT, LIVER, S-9, KANECHLOR 500, Method: PREINCUBATION) “inactive; negative”.
As for `Cc1cc(-c2cc(C)c(N)c(C)c2)cc(C)c1N`, the mutagenic call reads like this: (Test System: AMES SALMONELLA TYPHIMURIUM, Strain/Indicator: TA97, Metabolic Activation: HAMSTER, LIVER, S-9, AROCLOR 1254 (10%), Method: PREINCUBATION) “inactive; negative”; (Test System: AMES SALMONELLA TYPHIMURIUM, Strain/Indicator: TA97, Metabolic Activation: HAMSTER, LIVER, S-9, AROCLOR 1254 (30%), Method: PREINCUBATION) “inactive; negative”; under setting [3], “inactive; negative”; (Test System: AMES SALMONELLA TYPHIMURIUM, Strain/Indicator: TA97, Metabolic Activation: RAT, LIVER, S-9, AROCLOR 1254 (10%), Method: PREINCUBATION) “inactive; negative”; (Test System: AMES SALMONELLA TYPHIMURIUM, Strain/Indicator: TA97, Metabolic Activation: RAT, LIVER, S-9, AROCLOR 1254 (30%), Method: PREINCUBATION) “inactive; negative”; (Test System: AMES SALMONELLA TYPHIMURIUM, Strain/Indicator: TA98, Metabolic Activation: HAMSTER, LIVER, S-9, AROCLOR 1254 (10%), Method: PREINCUBATION) “inactive; negative”. Moreover, the mutagenic call was “inactive; negative” (Test System: AMES SALMONELLA TYPHIMURIUM, Strain/Indicator: TA98, Metabolic Activation: HAMSTER, LIVER, S-9, AROCLOR 1254 (30%), Method: PREINCUBATION); “inactive; negative” under setting [1]; “inactive; negative” (Test System: AMES SALMONELLA TYPHIMURIUM, Strain/Indicator: TA98, Metabolic Activation: RAT LIVER S-9, AROCLOR 1254, Method: PREINCUBATION); “inactive; negative” (Test System: AMES SALMONELLA TYPHIMURIUM, Strain/Indicator: TA98, Metabolic Activation: RAT, LIVER, S-9, AROCLOR 1254 (10%), Method: PREINCUBATION); “inactive; negative” (Test System: AMES SALMONELLA TYPHIMURIUM, Strain/Indicator: TA98, Metabolic Activation: RAT, LIVER, S-9, AROCLOR 1254 (30%), Method: PREINCUBATION); “inactive; negative” (Test System: AMES SALMONELLA TYPHIMURIUM, Strain/Indicator: TA100, Metabolic Activation: HAMSTER, LIVER, S-9, AROCLOR 1254 (10%), Method: PREINCUBATION). Further, the mutagenic call by setting is: (Test System: AMES SALMONELLA TYPHIMURIUM, Strain/Indicator: TA100, Metabolic Activation: HAMSTER, LIVER, S-9, AROCLOR 1254 (30%), Method: PREINCUBATION) “inactive; negative”; under setting [2], “inactive; negative”; (Test System: AMES SALMONELLA TYPHIMURIUM, Strain/Indicator: TA100, Metabolic Activation: RAT LIVER S-9, AROCLOR 1254, Method: PREINCUBATION) “inactive; negative”; (Test System: AMES SALMONELLA TYPHIMURIUM, Strain/Indicator: TA100, Metabolic Activation: RAT, LIVER, S-9, AROCLOR 1254 (10%), Method: PREINCUBATION) “inactive; negative”; (Test System: AMES SALMONELLA TYPHIMURIUM, Strain/Indicator: TA100, Metabolic Activation: RAT, LIVER, S-9, AROCLOR 1254 (30%), Method: PREINCUBATION) “inactive; negative”; (Test System: AMES SALMONELLA TYPHIMURIUM, Strain/Indicator: TA1535, Metabolic Activation: HAMSTER, LIVER, S-9, AROCLOR 1254 (10%), Method: PREINCUBATION) “inactive; negative”. Also, the mutagenic call (Test System: AMES SALMONELLA TYPHIMURIUM, Strain/Indicator: TA1535, Metabolic Activation: HAMSTER, LIVER, S-9, AROCLOR 1254 (30%), Method: PREINCUBATION) was “inactive; negative”; the mutagenic call under setting [4] is “inactive; negative”; the mutagenic call (Test System: AMES SALMONELLA TYPHIMURIUM, Strain/Indicator: TA1535, Metabolic Activation: RAT, LIVER, S-9, AROCLOR 1254 (10%), Method: PREINCUBATION) is “inactive; negative”; the mutagenic call (Test System: AMES SALMONELLA TYPHIMURIUM, Strain/Indicator: TA1535, Metabolic Activation: RAT, LIVER, S-9, AROCLOR 1254 (30%), Method: PREINCUBATION) is “inactive; negative”; the mutagenic call (Test System: Ames Salmonella typhimurium, Strain/Indicator: TA102, Metabolic Activation: None, Method: Preincubation) was “inactive; negative”; the mutagenic call (Test System: Ames Salmonella typhimurium, Strain/Indicator: TA102, Metabolic Activation: Rat, liver, S-9, Aroclor 1254, Method: Preincubation) was “inactive; negative”. For the same molecule, the mutagenic call by setting is: (Test System: MOUSE LYMPHOMA, Strain/Indicator: L5178Y (TK+/TK-), Metabolic Activation: RAT, LIVER, S-9, AROCLOR 1254, Method: SUSPENSION/PLATE) “inactive; negative”; (Test System: MOUSE LYMPHOMA, Strain/Indicator: L5178Y (TK+/TK-), Metabolic Activation: RAT, LIVER, S-9, Method: SUSPENSION/PLATE) “inactive; negative”.
As for `Clc1c(Cl)c(Cl)c2c(c1Cl)Oc1c(Cl)c(Cl)c(Cl)c(Cl)c1O2`, the mutagenic call runs as follows: (Test System: AMES SALMONELLA TYPHIMURIUM, Strain/Indicator: TA97, Metabolic Activation: HAMSTER, LIVER, S-9, AROCLOR 1254 (10 OR 30%), Method: PREINCUBATION) “inactive; negative”; under setting [3], “inactive; negative”; (Test System: AMES SALMONELLA TYPHIMURIUM, Strain/Indicator: TA97, Metabolic Activation: RAT, LIVER, S-9, AROCLOR 1254 (10 OR 30%), Method: PREINCUBATION) “inactive; negative”; (Test System: AMES SALMONELLA TYPHIMURIUM, Strain/Indicator: TA98, Metabolic Activation: HAMSTER, LIVER, S-9, AROCLOR 1254 (10 OR 30%), Method: PREINCUBATION) “inactive; negative”; under setting [1], “inactive; negative”; (Test System: AMES SALMONELLA TYPHIMURIUM, Strain/Indicator: TA98, Metabolic Activation: RAT, LIVER, S-9, AROCLOR 1254 (10 OR 30%), Method: PREINCUBATION) “inactive; negative”. Moreover, the mutagenic call was “inactive; negative” (Test System: AMES SALMONELLA TYPHIMURIUM, Strain/Indicator: TA100, Metabolic Activation: HAMSTER, LIVER, S-9, AROCLOR 1254 (10 OR 30%), Method: PREINCUBATION); “inactive; negative” under setting [2]; “inactive; negative” (Test System: AMES SALMONELLA TYPHIMURIUM, Strain/Indicator: TA100, Metabolic Activation: RAT, LIVER, S-9, AROCLOR 1254 (10 OR 30%), Method: PREINCUBATION); “inactive; negative” (Test System: AMES SALMONELLA TYPHIMURIUM, Strain/Indicator: TA1535, Metabolic Activation: HAMSTER, LIVER, S-9, AROCLOR 1254 (10 OR 30%), Method: PREINCUBATION); “inactive; negative” under setting [4]; “inactive; negative” (Test System: AMES SALMONELLA TYPHIMURIUM, Strain/Indicator: TA1535, Metabolic Activation: RAT, LIVER, S-9, AROCLOR 1254 (10 OR 30%), Method: PREINCUBATION).

(Values after PubChem BioAssay AID1259407 (Chemical Carcinogenesis Research Information System (CCRIS), 2018).)
